Data reported in ChEMBL document CHEMBL4732047, “New imidazopyridines with phosphodiesterase 4 and 7 inhibitory activity and their efficacy in animal models of inflammatory and autoimmune diseases” (Eur J Med Chem, 2021).
The source made the active and inactive calls. The rule behind the calls is not given here.

How the values were obtained:
[1] = target: High affinity 3',5'-cyclic-AMP phosphodiesterase 7A (Homo sapiens, UniProt Q13946); assay: Inhibition of human recombinant PDE7A using cAMP as substrate incubated for 20 mins measured by Kinase Glo reagent based microplate reader assay
High affinity 3',5'-cyclic-AMP phosphodiesterase 7A, sequence (Q13946 whole entry): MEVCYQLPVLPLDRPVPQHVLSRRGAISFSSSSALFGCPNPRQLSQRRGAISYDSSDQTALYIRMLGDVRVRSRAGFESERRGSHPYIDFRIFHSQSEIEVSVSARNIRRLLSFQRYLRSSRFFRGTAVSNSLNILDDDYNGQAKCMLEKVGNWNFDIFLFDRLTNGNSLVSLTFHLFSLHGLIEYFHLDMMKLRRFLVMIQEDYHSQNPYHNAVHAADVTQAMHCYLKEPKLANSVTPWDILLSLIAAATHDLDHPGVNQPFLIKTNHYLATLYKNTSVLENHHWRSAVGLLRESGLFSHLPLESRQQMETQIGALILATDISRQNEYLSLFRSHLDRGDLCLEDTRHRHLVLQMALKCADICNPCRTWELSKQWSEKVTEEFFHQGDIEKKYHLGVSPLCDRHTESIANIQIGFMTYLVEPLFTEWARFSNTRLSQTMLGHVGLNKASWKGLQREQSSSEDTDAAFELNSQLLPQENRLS

[2] = target: 3',5'-cyclic-AMP phosphodiesterase 4B (Homo sapiens, UniProt Q07343); assay: Inhibition of human recombinant PDE4B using cAMP as substrate incubated for 20 mins measured by Kinase Glo reagent based microplate reader assay
3',5'-cyclic-AMP phosphodiesterase 4B, sequence (Q07343 whole entry): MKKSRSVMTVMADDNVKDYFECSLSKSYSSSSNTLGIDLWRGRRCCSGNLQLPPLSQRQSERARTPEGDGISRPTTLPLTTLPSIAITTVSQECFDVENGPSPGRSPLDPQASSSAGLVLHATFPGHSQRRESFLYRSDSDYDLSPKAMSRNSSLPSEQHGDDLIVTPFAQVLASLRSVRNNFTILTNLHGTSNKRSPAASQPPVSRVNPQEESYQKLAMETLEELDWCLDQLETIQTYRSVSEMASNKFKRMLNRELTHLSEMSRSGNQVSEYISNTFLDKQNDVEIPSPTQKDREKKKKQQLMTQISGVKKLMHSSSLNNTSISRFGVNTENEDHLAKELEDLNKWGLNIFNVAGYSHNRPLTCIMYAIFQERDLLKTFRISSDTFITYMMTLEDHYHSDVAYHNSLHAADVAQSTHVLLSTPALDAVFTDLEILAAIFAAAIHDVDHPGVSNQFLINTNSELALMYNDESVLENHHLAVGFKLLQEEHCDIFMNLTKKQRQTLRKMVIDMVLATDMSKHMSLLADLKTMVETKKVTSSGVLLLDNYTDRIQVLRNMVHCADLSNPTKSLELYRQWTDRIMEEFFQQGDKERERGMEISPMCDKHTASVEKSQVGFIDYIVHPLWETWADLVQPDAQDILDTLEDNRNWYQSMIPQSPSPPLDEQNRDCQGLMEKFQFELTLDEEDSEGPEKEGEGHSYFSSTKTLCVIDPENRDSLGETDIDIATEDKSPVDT

[3] = target: cGMP-dependent 3',5'-cyclic phosphodiesterase (Homo sapiens, UniProt O00408); assay: Inhibition of human recombinant PDE2A using cGMP as substrate incubated for 20 mins measured by Kinase Glo reagent based microplate reader assay
cGMP-dependent 3',5'-cyclic phosphodiesterase, sequence (O00408 whole entry): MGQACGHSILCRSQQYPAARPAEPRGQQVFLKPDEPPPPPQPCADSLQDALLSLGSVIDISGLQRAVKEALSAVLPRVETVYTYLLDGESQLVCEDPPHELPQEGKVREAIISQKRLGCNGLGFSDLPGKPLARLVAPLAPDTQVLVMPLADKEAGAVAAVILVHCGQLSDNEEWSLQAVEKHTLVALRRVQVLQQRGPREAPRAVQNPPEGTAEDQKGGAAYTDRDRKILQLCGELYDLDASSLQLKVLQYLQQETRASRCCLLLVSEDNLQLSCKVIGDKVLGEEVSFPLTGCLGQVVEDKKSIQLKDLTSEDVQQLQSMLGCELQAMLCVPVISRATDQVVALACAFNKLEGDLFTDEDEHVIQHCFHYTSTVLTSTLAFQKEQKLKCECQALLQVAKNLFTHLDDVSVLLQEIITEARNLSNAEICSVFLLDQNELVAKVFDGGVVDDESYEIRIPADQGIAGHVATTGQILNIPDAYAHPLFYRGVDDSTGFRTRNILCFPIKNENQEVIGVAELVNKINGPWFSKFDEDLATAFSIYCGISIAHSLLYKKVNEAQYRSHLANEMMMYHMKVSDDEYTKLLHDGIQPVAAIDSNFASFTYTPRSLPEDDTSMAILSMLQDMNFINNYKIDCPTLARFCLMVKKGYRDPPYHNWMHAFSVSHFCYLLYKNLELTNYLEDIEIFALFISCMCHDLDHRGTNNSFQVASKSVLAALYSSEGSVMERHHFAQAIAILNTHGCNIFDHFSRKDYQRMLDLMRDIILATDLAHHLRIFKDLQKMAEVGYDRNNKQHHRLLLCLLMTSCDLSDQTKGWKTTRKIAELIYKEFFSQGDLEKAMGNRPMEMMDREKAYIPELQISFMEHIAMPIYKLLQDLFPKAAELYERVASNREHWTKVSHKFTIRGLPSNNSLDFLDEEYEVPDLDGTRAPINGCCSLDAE

Mus musculus [4] = assay: Hepatoprotective activity in ConA-induced BALB/c hepatitis mouse model assessed as decrease in serum IL-6 level at 10 mg/kg, ip administration and measured after 8 hrs relative to control; format: functional, organism-based
Mus musculus [5] = assay: Hepatoprotective activity in ConA-induced BALB/c hepatitis mouse model assessed as decrease in serum alanine aminotransferase level at 50 mg/kg, ip administration and measured after 8 hrs relative to control; format: functional, organism-based
Rattus norvegicus [6] = assay: Antiinflammatory activity in LPS-induced Wistar rat endotoxemia model assessed as decrease in plasma TNFalpha level at 5 mg/kg, ip measured after 1.5 hr; format: functional; set-up: scale not given: the % may be the effect or the level left
Mus musculus [7] = assay: Hepatoprotective activity in ConA-induced BALB/c hepatitis mouse model assessed as decrease in serum IL-6 level at 50 mg/kg, ip administration and measured after 8 hrs relative to control; format: functional, organism-based
Mus musculus [8] = assay: Hepatoprotective activity in ConA-induced BALB/c hepatitis mouse model assessed as decrease in serum IFNgamma level at 10 mg/kg, ip administration and measured after 8 hrs relative to control; format: functional, organism-based
Mus musculus [9] = assay: Hepatoprotective activity in ConA-induced BALB/c hepatitis mouse model assessed as decrease in serum alanine aminotransferase level at 10 mg/kg, ip administration and measured after 8 hrs relative to control; format: functional, organism-based
Rattus norvegicus [10] = assay: Antiinflammatory activity in LPS-induced Wistar rat endotoxemia model assessed as decrease in plasma TNFalpha level at 5 mg/kg, ip measured after 2 hr; format: functional; set-up: scale not given: the % may be the effect or the level left
Mus musculus [11] = assay: Hepatoprotective activity in ConA-induced BALB/c hepatitis mouse model assessed as decrease in serum IFNgamma level at 50 mg/kg, ip administration and measured after 8 hrs relative to control; format: functional, organism-based
Rattus norvegicus [12] = assay: Antiinflammatory activity in LPS-induced Wistar rat endotoxemia model assessed as decrease in plasma TNFalpha level at 5 mg/kg, ip measured after 1 hr; format: functional; set-up: scale not given: the % may be the effect or the level left
Mus musculus [13] = assay: Hepatoprotective activity in ConA-induced BALB/c hepatitis mouse model assessed as decrease in serum aspartate aminotransferase level at 10 mg/kg, ip administration and measured after 8 hrs relative to control; format: functional, organism-based
Mus musculus [14] = assay: Hepatoprotective activity in ConA-induced BALB/c hepatitis mouse model assessed as decrease in serum aspartate aminotransferase level at 50 mg/kg, ip administration and measured after 8 hrs relative to control; format: functional, organism-based

SMILES | IC50 [1] | IC50 [2] | also measured
CCCCCn1c(-c2ccco2)nc2c(N)ccnc21 | > 200 µM | 39.9 µM | –
CCCCCn1c(-c2ccccc2)nc2c(NCc3ccccc3)nccc21 | > 200 µM | 102 µM | –
CCCCCn1c(-c2ccc(OC)cc2)nc2c(N)ccnc21 | > 200 µM | 41.5 µM | –
CCCCCn1c(-c2ccco2)nc2c(NCc3ccccc3)nccc21 | > 200 µM | 8.34 µM | –
Nc1ccnc2c1nc(-c1ccccc1)n2CCCO | > 200 µM | 100 µM | –
COCCCNc1ccnc2c1nc(-c1ccco1)n2C1CCCC1 | 90.5 µM | 8.6 µM | –
CCCCCC[C@H]([C@H](C)O)n1cnc2c(N)ncnc21 [(+)-EHNA] | – | – | IC50 [3]: 2.62 µM
COc1ccc(C2CNC(=O)C2)cc1OC1CCCC1 (stereo unspecified) [ROLIPRAM] | – | – | Activity (Mus musculus [4]): Active; Activity (Mus musculus [5]): Active; Activity (Rattus norvegicus [6]): 73.5%; Activity (Mus musculus [7]): Active; Activity (Mus musculus [8]): Active; Activity (Mus musculus [9]): Active; Activity (Rattus norvegicus [10]): 77.1%; Activity (Mus musculus [11]): Active; Activity (Rattus norvegicus [12]): 85.6%; Activity (Mus musculus [13]): Active; Activity (Mus musculus [14]): Active
CCCCCn1c(-c2ccccc2)nc2c(NCc3ccccc3)ccnc21 | > 200 µM | 16.9 µM | –

Now from value to compound, other results behind:

IC50 [1] | IC50 [2] | SMILES | also measured
> 200 µM | 19 µM | OCCCNc1nccc2c1nc(-c1ccco1)n2C1CCCC1 | –
> 200 µM | > 200 µM | CCCCCn1c(-c2ccc([N+](=O)[O-])cc2)nc2c(N)ccnc21 | –
142 µM | 19.9 µM | COCCCNc1nccc2c1nc(-c1ccco1)n2C1CCCC1 | –
1.31 µM | – | Nc1nc(O)c2nc(Br)n(C3CCCc4cccc(Br)c43)c2n1 (stereo unspecified) | –
> 200 µM | 2.8 µM | c1coc(-c2nc3c(NCCc4cccs4)nccc3n2C2CCCC2)c1 | –
> 200 µM | 15.6 µM | CCCCCn1c(-c2ccccc2)nc2c(NCCc3cccs3)nccc21 | –
192 µM | 18.1 µM | COCCNc1nccc2c1nc(-c1ccco1)n2C1CCCC1 | –
> 200 µM | 3.25 µM | c1coc(-c2nc3c(NCCc4cccs4)ccnc3n2C2CCCC2)c1 | –
